According to patent publication US5876694A, “Azavesamicols” (priority 1997, dated 1999):

Tested on: vesamicol receptor
Test: Blocking experiment 2: effect of vesamicol pretreatment on radiotracer accumulation
Type: in vivo, male Wistar rats
Settings: 30 min postradiotracer
Method: Two separate experiments each utilizing two groups of male Wistar rats (n=3) were performed. […]
At time = 0, animals in group 1 injected intravenously with vehicle (50%)
aq. EtOH; 0.2 ml), while animals in group 2 each received an i.v.
injection of (dl)vesamicol. HCl (1.01 umol/Kg0). After 15 min, both group
were injected with the radiotracer, allowed to recover and sacrificed 30
min postradiotracer injection.

[1] = Group 2: (dl)vesamicol.HCl 1.01 umol/Kg pretreatment

O[C@@H]1CCN(Cc2cccc([125I])c2)C[C@H]1N1CCC(c2ccccc2)CC1 (single isomer, unassigned) [(-)-[^125 I]12h, (+)- and (-)-4-hydroxy-1-(3-[I^125]iodobenzyl)-3-(4-phenyl-piperidinyl)piperidine]
Accumulation after pretreatment, ratio brain/blood (Group 1: vehicle pretreatment): 6.45
Accumulation after pretreatment, ratio heart/blood (Group 1: vehicle pretreatment): 5.59
Accumulation after pretreatment, ratio brain/blood [1]: 2.75
Accumulation after pretreatment, ratio heart/blood [1]: 2.40
